In patent publication US20230085307A1, “PYRIDAZINONE COMPOUND AND HERBICIDE” (NISSAN CHEMICAL CORPORATION, priority 2019, published 2023):

Key:
late watergrass = assay: Test Example 1: herbicidal activity, application before weed generation under submerged conditions (Table 16, symbol A); format: in vivo, late watergrass (Echinochloa oryzicola)
How it was run: (§1)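 Submerged Wagner pots (alluvial soil, 4 cm water) sown with weed seeds and planted with 2.5-leaf rice seedlings; emulsifiable concentrate diluted in water applied to water surface on sowing day. Held in greenhouse at 25-30 °C; injury scored 0-5 by herbicidal rate after three weeks.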

Japanese bulrush = assay: Test Example 1: herbicidal activity, application before weed generation under submerged conditions (Table 16, symbol B); format: in vivo, Japanese bulrush (Schoenoplectus juncoides)
How it was run: as §1

oval-leafed pondweed [1] = assay: Test Example 1: herbicidal activity, application before weed generation under submerged conditions (Table 16, symbol C); format: in vivo, oval-leafed pondweed (Monochoria vaginalis)
How it was run: as §1

oval-leafed pondweed [2] = assay: Test Example 2: herbicidal activity, application during weed generation under submerged conditions (Table 17, symbol C); format: in vivo, oval-leafed pondweed (Monochoria vaginalis); conditions: for herbicidal effect rating, C: oval-leafed pondweed: application during weed generation, submerged conditions
How it was run: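 Steps: fill Wagner pots with alluvial soil; add water to give 4 cm depth; sow the species mixed; grow under glass at 25–30° C.; at 1–2 leaves apply water-diluted emulsion formulation to the water surface at a fixed herbicide amount; score after 3 weeks.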

Chinese sprangletop = assay: Test Example 3: herbicidal effect by foliage application, Wagner pot (Table 18, symbol D); format: in vivo, chinese sprangletop (Leptochloa chinensis)
How it was run: (§2)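 Plants were sown in alluvial soil held under 0.1–0.5 cm standing water and grown 14 days in a greenhouse at 25–30 °C. An emulsifiable formulation, water-diluted to the set dose, was then sprayed onto the foliage, and effects were scored three weeks later using previously defined criteria.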

rice flat sedge = assay: Test Example 3: herbicidal effect by foliage application, Wagner pot (Table 18, symbol E); format: in vivo, rice flat sedge (Cyperus iria)
How it was run: as §2

southern crabgrass [3] = assay: Test Example 4: herbicidal effect by soil treatment (Table 19, symbol F); format: in vivo, southern crabgrass (Digitaria ciliaris)
How it was run: (§3)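 Herbicidal effect was rated 3 weeks after treatment, using the scoring criteria of an earlier test. The compound, formulated as an emulsion and diluted in water to a set herbicide amount, had been sprayed uniformly on soil over freshly sown seeds. Growth took place in a greenhouse at 25° C. to 30° C.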

windgrass [4] = assay: Test Example 4: herbicidal effect by soil treatment (Table 19, symbol L); format: in vivo, windgrass (Apera spica-venti)
How it was run: as §3

redroot pigweed = assay: Test Example 4: herbicidal effect by soil treatment (Table 19, symbol N); format: in vivo, redroot pigweed (Amaranthus retroflexus)
How it was run: as §3

persian speedwell = assay: Test Example 4: herbicidal effect by soil treatment (Table 19, symbol R); format: in vivo, Persian speedwell (Veronica persica)
How it was run: as §3

southern crabgrass [5] = assay: Test Example 5: herbicidal effect by foliage application, plastic box (Table 20, symbol F); format: in vivo, southern crabgrass (Digitaria ciliaris); conditions: foliage application; for herbicidal effect on southern crabgrass (F): three weeks after application
How it was run: (§4)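 Foliar spray test: emulsion formulation diluted in water to a set application rate, sprayed onto 14-day-old plants raised in diluvial soil at 25° C to 30° C under glass. Both herbicidal effect and crop effect rated visually three weeks later.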

green foxtail = assay: Test Example 5: herbicidal effect by foliage application, plastic box (Table 20, symbol G); format: in vivo, green foxtail (Setaria viridis); conditions: foliage application; for herbicidal effect on green foxtail (G): three weeks after application
How it was run: as §4

barnyard grass = assay: Test Example 5: herbicidal effect by foliage application, plastic box (Table 20, symbol H); format: in vivo, barnyard grass (Echinochloa crus-galli); conditions: foliage application; for herbicidal effect on barnyard grass (H): three weeks after application
How it was run: as §4

wild oat = assay: Test Example 5: herbicidal effect by foliage application, plastic box (Table 20, symbol I); format: in vivo, wild oat (Avena fatua); conditions: foliage application; for herbicidal effect on wild oat (I): three weeks after application
How it was run: as §4

windgrass [6] = assay: Test Example 5: herbicidal effect by foliage application, plastic box (Table 20, symbol L); format: in vivo, windgrass (Apera spica-venti); conditions: foliage application; for herbicidal effect on windgrass (L): three weeks after application
How it was run: as §4

lambsquarters = assay: Test Example 5: herbicidal effect by foliage application, plastic box (Table 20, symbol O); format: in vivo, lambsquarters (Chenopodium album); conditions: foliage application; for herbicidal effect on lambsquarters (O): three weeks after application
How it was run: as §4

[7] = amount of applied herbicide 390 g/ha
[8] = amount of applied herbicide 320 g/ha
[9] = 320 g/ha, evaluated 3 weeks after application

CCCC(=O)Oc1c(C)nn(C)c(=O)c1-c1c(-c2ccc(F)cc2)oc2ccc(C)cc12 [9-005]
Herbicidal effect, A: late watergrass (late watergrass; [7]): 5 (Herbicidal rate of 90% or more (almost completely withered))
Herbicidal effect, B: Japanese bulrush (Japanese bulrush; [7]): 4 (Herbicidal rate of 70% or more and less than 90%)
Herbicidal effect, C: oval-leafed pondweed (oval-leafed pondweed [1]; [7]): 3 (Herbicidal rate of 40% or more and less than 70%)
herbicidal effect rating, C: oval-leafed pondweed (oval-leafed pondweed [2]; AAH 390 g/ha): 3 (Herbicidal rate of 40% or more and less than 70%)
Herbicidal effect on D (Chinese sprangletop), foliage application (Chinese sprangletop; [7]): 0 (Herbicidal rate of 5% or less (almost no effect))
Herbicidal effect on E (rice flat sedge), foliage application (rice flat sedge; [7]): 2 (Herbicidal rate of 20% or more and less than 40%)
F: southern crabgrass, herbicidal effect grade (southern crabgrass [3]; [7]): 0 (Herbicidal rate of 5% or less (almost no effect))
L: windgrass, herbicidal effect grade (windgrass [4]; [7]): 0 (Herbicidal rate of 5% or less (almost no effect))
N: redroot pigweed, herbicidal effect grade (redroot pigweed; [7]): 3 (Herbicidal rate of 40% or more and less than 70%)
R: persian speedwell, herbicidal effect grade (persian speedwell; [7]): 3 (Herbicidal rate of 40% or more and less than 70%)
herbicidal effect on southern crabgrass (F) (southern crabgrass [5]; 390 g/ha): 0 (Herbicidal rate of 5% or less (almost no effect))
herbicidal effect on green foxtail (G) (green foxtail; 390 g/ha): 0 (Herbicidal rate of 5% or less (almost no effect))
herbicidal effect on barnyard grass (H) (barnyard grass; 390 g/ha): 0 (Herbicidal rate of 5% or less (almost no effect))
herbicidal effect on wild oat (I) (wild oat; 390 g/ha): 0 (Herbicidal rate of 5% or less (almost no effect))
herbicidal effect on windgrass (L) (windgrass [6]; 390 g/ha): 0 (Herbicidal rate of 5% or less (almost no effect))
herbicidal effect on lambsquarters (O) (lambsquarters; 390 g/ha): 3 (Herbicidal rate of 40% or more and less than 70%)

COc1ccc(-c2oc3ccc(C)cc3c2-c2c(O)c(C)nn(C)c2=O)cc1 [9-007]
Herbicidal effect, A: late watergrass (late watergrass; [8]): 5 (Herbicidal rate of 90% or more (almost completely withered))
Herbicidal effect, B: Japanese bulrush (Japanese bulrush; [8]): 5 (Herbicidal rate of 90% or more (almost completely withered))
Herbicidal effect, C: oval-leafed pondweed (oval-leafed pondweed [1]; [8]): 5 (Herbicidal rate of 90% or more (almost completely withered))
herbicidal effect rating, C: oval-leafed pondweed (oval-leafed pondweed [2]; AAH 320 g/ha): 5 (Herbicidal rate of 90% or more (almost completely withered))
Herbicidal effect on D (Chinese sprangletop), foliage application (Chinese sprangletop; [8]): 1 (Herbicidal rate of 5% or more and less than 20%)
Herbicidal effect on E (rice flat sedge), foliage application (rice flat sedge; [8]): 5 (Herbicidal rate of 90% or more (almost completely withered))
F: southern crabgrass, herbicidal effect grade (southern crabgrass [3]; [8]): 5 (Herbicidal rate of 90% or more (almost completely withered))
L: windgrass, herbicidal effect grade (windgrass [4]; [8]): 0 (Herbicidal rate of 5% or less (almost no effect))
N: redroot pigweed, herbicidal effect grade (redroot pigweed; [8]): 5 (Herbicidal rate of 90% or more (almost completely withered))
R: persian speedwell, herbicidal effect grade (persian speedwell; [8]): 5 (Herbicidal rate of 90% or more (almost completely withered))
herbicidal effect on southern crabgrass (F) (southern crabgrass [5]; 320 g/ha): 5 (Herbicidal rate of 90% or more (almost completely withered))
herbicidal effect on green foxtail (G) (green foxtail; 320 g/ha): 4 (Herbicidal rate of 70% or more and less than 90%)
herbicidal effect on barnyard grass (H) (barnyard grass; 320 g/ha): 4 (Herbicidal rate of 70% or more and less than 90%)
herbicidal effect on wild oat (I) (wild oat; 320 g/ha): 4 (Herbicidal rate of 70% or more and less than 90%)
herbicidal effect on windgrass (L) (windgrass [6]; 320 g/ha): 4 (Herbicidal rate of 70% or more and less than 90%)
herbicidal effect on lambsquarters (O) (lambsquarters; 320 g/ha): 5 (Herbicidal rate of 90% or more (almost completely withered))

CCCC(=O)Oc1c(C)nn(C)c(=O)c1-c1c(-c2ccc(OC)cc2)oc2ccc(C)cc12 [9-008]
Herbicidal effect, A: late watergrass (late watergrass; [8]): 5 (Herbicidal rate of 90% or more (almost completely withered))
Herbicidal effect, B: Japanese bulrush (Japanese bulrush; [8]): 5 (Herbicidal rate of 90% or more (almost completely withered))
Herbicidal effect, C: oval-leafed pondweed (oval-leafed pondweed [1]; [8]): 5 (Herbicidal rate of 90% or more (almost completely withered))
herbicidal effect rating, C: oval-leafed pondweed (oval-leafed pondweed [2]; AAH 320 g/ha): 5 (Herbicidal rate of 90% or more (almost completely withered))
Herbicidal effect on D (Chinese sprangletop), foliage application (Chinese sprangletop; [8]): 3 (Herbicidal rate of 40% or more and less than 70%)
Herbicidal effect on E (rice flat sedge), foliage application (rice flat sedge; [8]): 5 (Herbicidal rate of 90% or more (almost completely withered))
F: southern crabgrass, herbicidal effect grade (southern crabgrass [3]; [8]): 3 (Herbicidal rate of 40% or more and less than 70%)
L: windgrass, herbicidal effect grade (windgrass [4]; [8]): 0 (Herbicidal rate of 5% or less (almost no effect))
N: redroot pigweed, herbicidal effect grade (redroot pigweed; [8]): 5 (Herbicidal rate of 90% or more (almost completely withered))
R: persian speedwell, herbicidal effect grade (persian speedwell; [8]): 4 (Herbicidal rate of 70% or more and less than 90%)
herbicidal effect on southern crabgrass (F) (southern crabgrass [5]; 320 g/ha): 3 (Herbicidal rate of 40% or more and less than 70%)
herbicidal effect on green foxtail (G) (green foxtail; 320 g/ha): 3 (Herbicidal rate of 40% or more and less than 70%)
herbicidal effect on barnyard grass (H) (barnyard grass; 320 g/ha): 3 (Herbicidal rate of 40% or more and less than 70%)
herbicidal effect on wild oat (I) (wild oat; 320 g/ha): 3 (Herbicidal rate of 40% or more and less than 70%)
herbicidal effect on windgrass (L) (windgrass [6]; 320 g/ha): 0 (Herbicidal rate of 5% or less (almost no effect))
herbicidal effect on lambsquarters (O) (lambsquarters; 320 g/ha): 4 (Herbicidal rate of 70% or more and less than 90%)

Cc1ccc2oc(-c3ccc(SC(C)C)cc3)c(-c3c(O)c(C)nn(C)c3=O)c2c1 [9-059]
Herbicidal effect, A: late watergrass (late watergrass; [8]): 5 (Herbicidal rate of 90% or more (almost completely withered))
Herbicidal effect, B: Japanese bulrush (Japanese bulrush; [8]): 3 (Herbicidal rate of 40% or more and less than 70%)
Herbicidal effect, C: oval-leafed pondweed (oval-leafed pondweed [1]; [8]): 3 (Herbicidal rate of 40% or more and less than 70%)
herbicidal effect grade, C: oval-leafed pondweed (oval-leafed pondweed [2]; application during weed generation under submerged conditions, amount of applied herbicide 320 g/ha): 4 (Herbicidal rate of 70% or more and less than 90%)
Herbicidal effect on D (Chinese sprangletop), foliage application (Chinese sprangletop; [8]): 3 (Herbicidal rate of 40% or more and less than 70%)
Herbicidal effect on E (rice flat sedge), foliage application (rice flat sedge; [8]): 5 (Herbicidal rate of 90% or more (almost completely withered))
F: southern crabgrass, herbicidal effect grade (southern crabgrass [3]; [8]): 0 (Herbicidal rate of 5% or less (almost no effect))
L: windgrass, herbicidal effect grade (windgrass [4]; [8]): 0 (Herbicidal rate of 5% or less (almost no effect))
N: redroot pigweed, herbicidal effect grade (redroot pigweed; [8]): 5 (Herbicidal rate of 90% or more (almost completely withered))
R: persian speedwell, herbicidal effect grade (persian speedwell; [8]): 5 (Herbicidal rate of 90% or more (almost completely withered))
F (southern crabgrass) herbicidal effect grade (southern crabgrass [5]; [9]): 2 (Herbicidal rate of 20% or more and less than 40%)
G (green foxtail) herbicidal effect grade (green foxtail; [9]): 5 (Herbicidal rate of 90% or more (almost completely withered))
H (barnyard grass) herbicidal effect grade (barnyard grass; [9]): 3 (Herbicidal rate of 40% or more and less than 70%)
I (wild oat) herbicidal effect grade (wild oat; [9]): 3 (Herbicidal rate of 40% or more and less than 70%)
L (windgrass) herbicidal effect grade (windgrass [6]; [9]): 1 (Herbicidal rate of 5% or more and less than 20%)
O (lambsquarters) herbicidal effect grade (lambsquarters; [9]): 5 (Herbicidal rate of 90% or more (almost completely withered))
